In ChEMBL document CHEMBL4507291 (2021):

Assays:
[1] = target: Calcium/calmodulin-dependent protein kinase type 1D (Homo sapiens) (UniProt Q8IU85)
[2] = target: Cyclin-dependent kinase 9 (Homo sapiens) (UniProt P50750)
[3] = target: Cyclin-dependent kinase-like 3 (Homo sapiens) (UniProt Q8IVW4)
[4] = target: Serine/threonine-protein kinase DCLK3 (Homo sapiens) (UniProt Q9C098)
[5] = target: Receptor-type tyrosine-protein kinase FLT3 (Homo sapiens) (UniProt P36888)
[6] = target: Serine/threonine-protein kinase Nek5 (Homo sapiens) (UniProt Q6P3R8)
[7] = target: 1-phosphatidylinositol 3-phosphate 5-kinase (Homo sapiens) (UniProt Q9Y2I7)
[8] = target: Serine/threonine-protein kinase PLK3 (Homo sapiens) (UniProt Q9H4B4)
Chain of Serine/threonine-protein kinase PLK3 (Homo sapiens) (Q9H4B4 whole entry, looked up): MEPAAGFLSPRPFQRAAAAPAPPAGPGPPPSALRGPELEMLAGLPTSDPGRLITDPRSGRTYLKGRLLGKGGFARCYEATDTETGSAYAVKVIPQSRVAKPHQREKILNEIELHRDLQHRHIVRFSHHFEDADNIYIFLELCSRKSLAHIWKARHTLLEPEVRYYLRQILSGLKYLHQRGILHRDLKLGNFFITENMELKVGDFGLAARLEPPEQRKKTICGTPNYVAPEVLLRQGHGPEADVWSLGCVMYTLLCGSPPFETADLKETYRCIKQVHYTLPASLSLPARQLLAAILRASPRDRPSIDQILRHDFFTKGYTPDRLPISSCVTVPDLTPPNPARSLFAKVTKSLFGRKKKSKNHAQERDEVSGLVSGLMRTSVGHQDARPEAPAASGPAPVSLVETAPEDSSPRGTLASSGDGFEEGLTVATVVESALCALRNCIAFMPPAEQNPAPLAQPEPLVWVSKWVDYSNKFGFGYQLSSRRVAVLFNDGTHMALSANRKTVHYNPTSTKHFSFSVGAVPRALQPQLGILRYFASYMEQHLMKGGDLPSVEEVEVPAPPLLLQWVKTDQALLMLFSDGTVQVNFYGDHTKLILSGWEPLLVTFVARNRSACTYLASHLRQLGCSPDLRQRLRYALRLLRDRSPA

[9] = target: Protein kinase C eta type (Homo sapiens) (UniProt P24723)
Chain of Protein kinase C eta type (Homo sapiens) (P24723 whole entry): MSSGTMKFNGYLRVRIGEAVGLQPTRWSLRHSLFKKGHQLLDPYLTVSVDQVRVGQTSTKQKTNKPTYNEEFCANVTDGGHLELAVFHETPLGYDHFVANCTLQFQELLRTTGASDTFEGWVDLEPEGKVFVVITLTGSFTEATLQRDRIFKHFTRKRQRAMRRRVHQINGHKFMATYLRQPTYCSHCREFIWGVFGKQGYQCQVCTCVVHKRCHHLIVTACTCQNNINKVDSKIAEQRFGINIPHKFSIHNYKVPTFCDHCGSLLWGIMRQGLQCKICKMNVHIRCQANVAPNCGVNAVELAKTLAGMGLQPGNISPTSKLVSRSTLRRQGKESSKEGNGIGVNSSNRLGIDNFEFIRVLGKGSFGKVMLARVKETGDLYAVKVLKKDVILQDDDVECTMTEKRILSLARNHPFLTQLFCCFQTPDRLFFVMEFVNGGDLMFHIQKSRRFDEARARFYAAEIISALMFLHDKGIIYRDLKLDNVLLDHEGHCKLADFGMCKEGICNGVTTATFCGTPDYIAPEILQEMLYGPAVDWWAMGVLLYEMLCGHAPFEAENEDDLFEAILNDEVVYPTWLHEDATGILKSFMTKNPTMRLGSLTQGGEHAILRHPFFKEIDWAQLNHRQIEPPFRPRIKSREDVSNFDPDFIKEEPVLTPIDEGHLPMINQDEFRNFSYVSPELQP

[10] = target: T1, Serine/threonine-protein kinase D2 (Homo sapiens) (UniProt Q9BZL6)
T1 sequence (whole entry): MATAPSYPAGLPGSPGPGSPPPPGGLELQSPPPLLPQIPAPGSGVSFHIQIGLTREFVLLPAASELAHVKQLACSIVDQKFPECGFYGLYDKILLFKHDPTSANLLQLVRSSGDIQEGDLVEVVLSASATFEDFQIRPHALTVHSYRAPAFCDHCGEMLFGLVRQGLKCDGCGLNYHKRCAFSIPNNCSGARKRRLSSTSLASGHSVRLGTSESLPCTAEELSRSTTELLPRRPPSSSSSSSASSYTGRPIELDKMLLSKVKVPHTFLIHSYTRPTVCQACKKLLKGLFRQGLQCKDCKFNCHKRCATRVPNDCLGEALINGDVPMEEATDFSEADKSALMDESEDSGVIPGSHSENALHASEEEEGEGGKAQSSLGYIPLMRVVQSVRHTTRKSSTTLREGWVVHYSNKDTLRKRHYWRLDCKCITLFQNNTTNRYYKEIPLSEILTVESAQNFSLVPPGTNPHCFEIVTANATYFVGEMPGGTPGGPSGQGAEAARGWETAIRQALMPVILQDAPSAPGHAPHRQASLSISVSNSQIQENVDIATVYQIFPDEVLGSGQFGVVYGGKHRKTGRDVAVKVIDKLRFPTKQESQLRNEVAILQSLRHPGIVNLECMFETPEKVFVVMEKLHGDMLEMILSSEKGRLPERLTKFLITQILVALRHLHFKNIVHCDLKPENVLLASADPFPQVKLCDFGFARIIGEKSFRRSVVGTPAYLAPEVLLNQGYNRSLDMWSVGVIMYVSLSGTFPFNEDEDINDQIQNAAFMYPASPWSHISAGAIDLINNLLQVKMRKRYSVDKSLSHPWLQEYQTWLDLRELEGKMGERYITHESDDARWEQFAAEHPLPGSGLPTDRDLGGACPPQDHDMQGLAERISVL

[11] = target: SRSF protein kinase 1 (Homo sapiens) (UniProt Q96SB4)
[12] = target: T2, Serine/threonine-protein kinase TBK1 (Homo sapiens) (UniProt Q9UHD2)
T2 sequence (whole entry): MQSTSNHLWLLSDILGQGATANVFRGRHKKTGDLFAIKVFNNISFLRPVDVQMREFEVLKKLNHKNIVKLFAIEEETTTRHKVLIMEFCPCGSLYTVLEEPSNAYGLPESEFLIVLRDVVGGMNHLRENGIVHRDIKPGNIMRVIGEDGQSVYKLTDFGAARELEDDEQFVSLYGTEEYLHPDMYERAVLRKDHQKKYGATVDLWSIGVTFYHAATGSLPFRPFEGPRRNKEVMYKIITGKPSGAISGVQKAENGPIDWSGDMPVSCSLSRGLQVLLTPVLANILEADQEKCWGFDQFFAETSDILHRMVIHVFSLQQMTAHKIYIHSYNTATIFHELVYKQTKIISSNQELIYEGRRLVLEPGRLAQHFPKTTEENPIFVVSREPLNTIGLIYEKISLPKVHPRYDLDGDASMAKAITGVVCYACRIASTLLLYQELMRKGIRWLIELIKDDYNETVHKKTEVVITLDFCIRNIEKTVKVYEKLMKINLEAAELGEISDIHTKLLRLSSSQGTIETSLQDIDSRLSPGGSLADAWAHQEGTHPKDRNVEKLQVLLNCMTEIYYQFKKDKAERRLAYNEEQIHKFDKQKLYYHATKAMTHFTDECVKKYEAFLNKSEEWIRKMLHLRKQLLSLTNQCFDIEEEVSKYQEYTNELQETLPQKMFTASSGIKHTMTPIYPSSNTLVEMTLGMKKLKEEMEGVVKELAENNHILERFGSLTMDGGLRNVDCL

[13] = target: Angiopoietin-1 receptor (Homo sapiens) (UniProt Q02763)
Chain of Angiopoietin-1 receptor (Homo sapiens) (Q02763 whole entry): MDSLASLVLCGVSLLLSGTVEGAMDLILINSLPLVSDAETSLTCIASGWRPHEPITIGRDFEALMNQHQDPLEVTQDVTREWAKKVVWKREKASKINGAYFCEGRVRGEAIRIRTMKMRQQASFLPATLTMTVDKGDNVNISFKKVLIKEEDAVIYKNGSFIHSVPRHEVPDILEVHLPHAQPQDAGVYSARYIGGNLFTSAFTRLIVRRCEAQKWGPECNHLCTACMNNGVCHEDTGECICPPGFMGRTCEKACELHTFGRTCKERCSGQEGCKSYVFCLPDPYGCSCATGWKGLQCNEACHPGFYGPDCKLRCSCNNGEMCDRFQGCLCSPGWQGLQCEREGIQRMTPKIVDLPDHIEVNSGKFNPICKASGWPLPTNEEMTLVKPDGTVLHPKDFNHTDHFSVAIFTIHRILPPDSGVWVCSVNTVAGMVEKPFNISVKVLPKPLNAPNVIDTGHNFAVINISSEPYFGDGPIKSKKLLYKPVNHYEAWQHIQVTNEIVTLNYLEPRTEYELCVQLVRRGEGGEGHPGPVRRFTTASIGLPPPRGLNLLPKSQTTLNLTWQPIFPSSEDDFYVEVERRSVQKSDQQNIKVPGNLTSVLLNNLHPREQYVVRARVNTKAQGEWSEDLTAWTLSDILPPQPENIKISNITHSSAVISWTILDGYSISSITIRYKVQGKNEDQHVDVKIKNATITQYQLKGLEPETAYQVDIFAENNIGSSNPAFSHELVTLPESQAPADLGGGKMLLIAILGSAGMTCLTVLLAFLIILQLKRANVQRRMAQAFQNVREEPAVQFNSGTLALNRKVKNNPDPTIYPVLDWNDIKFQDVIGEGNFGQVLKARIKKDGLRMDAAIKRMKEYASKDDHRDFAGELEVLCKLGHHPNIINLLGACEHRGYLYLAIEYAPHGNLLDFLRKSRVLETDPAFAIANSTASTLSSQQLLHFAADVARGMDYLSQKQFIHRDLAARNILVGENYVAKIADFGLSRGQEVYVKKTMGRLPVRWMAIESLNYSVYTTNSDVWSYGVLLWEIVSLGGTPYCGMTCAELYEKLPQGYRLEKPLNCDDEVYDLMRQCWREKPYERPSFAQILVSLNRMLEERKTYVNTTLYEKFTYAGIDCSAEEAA

[14] = target: Non-receptor tyrosine-protein kinase TNK1 (Homo sapiens) (UniProt Q13470)
[15] = target: Serine/threonine-protein kinase TNNI3K (Homo sapiens) (UniProt Q59H18)
[16] = target: High affinity nerve growth factor receptor (Homo sapiens) (UniProt P04629)
Chain of High affinity nerve growth factor receptor (Homo sapiens) (P04629 33-796 limits assumed): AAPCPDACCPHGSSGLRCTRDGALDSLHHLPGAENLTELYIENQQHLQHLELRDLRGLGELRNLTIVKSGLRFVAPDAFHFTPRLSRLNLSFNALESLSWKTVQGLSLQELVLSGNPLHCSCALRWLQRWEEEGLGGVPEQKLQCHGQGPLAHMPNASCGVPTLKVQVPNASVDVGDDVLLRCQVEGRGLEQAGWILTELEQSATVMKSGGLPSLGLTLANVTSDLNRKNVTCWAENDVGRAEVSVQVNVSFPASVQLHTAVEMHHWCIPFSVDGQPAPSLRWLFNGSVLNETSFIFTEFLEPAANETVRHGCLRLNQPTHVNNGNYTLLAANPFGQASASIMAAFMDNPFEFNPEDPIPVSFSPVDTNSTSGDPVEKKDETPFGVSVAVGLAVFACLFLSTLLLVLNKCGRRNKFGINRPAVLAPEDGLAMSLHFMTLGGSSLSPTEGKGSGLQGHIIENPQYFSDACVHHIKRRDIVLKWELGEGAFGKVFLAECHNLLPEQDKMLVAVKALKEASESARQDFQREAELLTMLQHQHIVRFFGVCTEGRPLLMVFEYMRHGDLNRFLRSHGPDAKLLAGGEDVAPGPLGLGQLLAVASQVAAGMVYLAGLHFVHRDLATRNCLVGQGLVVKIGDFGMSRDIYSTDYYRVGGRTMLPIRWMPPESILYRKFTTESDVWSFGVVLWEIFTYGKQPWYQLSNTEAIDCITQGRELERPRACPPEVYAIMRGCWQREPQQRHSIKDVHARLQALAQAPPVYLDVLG

[17] = target: T3, 5-hydroxytryptamine receptor 3A (Homo sapiens) (UniProt P46098); conditions: Compound concentration 10.0 uM
T3 sequence (whole entry): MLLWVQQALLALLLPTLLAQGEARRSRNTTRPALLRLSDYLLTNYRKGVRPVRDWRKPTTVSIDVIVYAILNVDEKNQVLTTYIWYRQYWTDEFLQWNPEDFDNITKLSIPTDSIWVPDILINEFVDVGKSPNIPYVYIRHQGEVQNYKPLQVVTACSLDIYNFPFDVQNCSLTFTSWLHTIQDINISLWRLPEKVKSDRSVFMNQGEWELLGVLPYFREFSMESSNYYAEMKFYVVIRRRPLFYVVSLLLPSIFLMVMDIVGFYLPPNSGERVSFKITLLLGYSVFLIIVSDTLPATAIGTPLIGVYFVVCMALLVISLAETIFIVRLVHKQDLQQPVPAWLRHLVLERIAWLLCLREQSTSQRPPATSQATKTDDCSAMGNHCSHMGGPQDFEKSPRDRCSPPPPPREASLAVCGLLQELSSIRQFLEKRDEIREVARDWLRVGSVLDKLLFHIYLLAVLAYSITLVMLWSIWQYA

[18] = Compound concentration 1000.0 nM
[19] = Compound concentration 100.0 nM

Chain of Serine/threonine-protein kinase DCLK3 (Homo sapiens) (Q9C098 whole entry): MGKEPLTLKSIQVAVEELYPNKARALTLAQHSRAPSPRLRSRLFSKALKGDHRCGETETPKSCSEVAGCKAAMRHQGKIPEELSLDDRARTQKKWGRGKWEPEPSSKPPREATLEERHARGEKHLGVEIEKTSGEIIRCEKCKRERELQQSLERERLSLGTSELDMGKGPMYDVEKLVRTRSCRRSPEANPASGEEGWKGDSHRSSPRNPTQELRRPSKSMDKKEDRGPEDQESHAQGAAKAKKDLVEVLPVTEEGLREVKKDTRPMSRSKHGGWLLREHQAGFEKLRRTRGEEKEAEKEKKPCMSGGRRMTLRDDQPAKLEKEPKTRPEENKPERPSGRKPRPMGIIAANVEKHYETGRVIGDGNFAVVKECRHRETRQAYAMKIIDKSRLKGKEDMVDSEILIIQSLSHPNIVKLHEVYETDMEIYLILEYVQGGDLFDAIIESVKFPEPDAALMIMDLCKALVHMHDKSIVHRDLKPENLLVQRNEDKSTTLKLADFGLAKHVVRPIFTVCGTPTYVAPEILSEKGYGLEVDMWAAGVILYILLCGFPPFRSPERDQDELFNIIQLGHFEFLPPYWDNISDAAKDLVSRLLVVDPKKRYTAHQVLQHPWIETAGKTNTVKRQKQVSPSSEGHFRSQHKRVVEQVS
Chain of Calcium/calmodulin-dependent protein kinase type 1D (Homo sapiens) (Q8IU85 whole entry, looked up): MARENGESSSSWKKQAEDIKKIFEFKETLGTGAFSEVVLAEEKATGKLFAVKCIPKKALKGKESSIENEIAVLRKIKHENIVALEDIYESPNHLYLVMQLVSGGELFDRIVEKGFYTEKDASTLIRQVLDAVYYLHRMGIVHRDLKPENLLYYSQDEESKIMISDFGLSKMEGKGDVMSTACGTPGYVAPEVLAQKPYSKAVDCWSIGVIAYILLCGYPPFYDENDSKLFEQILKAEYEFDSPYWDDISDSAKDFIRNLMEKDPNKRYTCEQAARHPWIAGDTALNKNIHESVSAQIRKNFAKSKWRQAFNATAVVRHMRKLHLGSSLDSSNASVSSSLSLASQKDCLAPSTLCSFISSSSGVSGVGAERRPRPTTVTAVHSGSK
Chain of Cyclin-dependent kinase-like 3 (Homo sapiens) (Q8IVW4 whole entry, looked up): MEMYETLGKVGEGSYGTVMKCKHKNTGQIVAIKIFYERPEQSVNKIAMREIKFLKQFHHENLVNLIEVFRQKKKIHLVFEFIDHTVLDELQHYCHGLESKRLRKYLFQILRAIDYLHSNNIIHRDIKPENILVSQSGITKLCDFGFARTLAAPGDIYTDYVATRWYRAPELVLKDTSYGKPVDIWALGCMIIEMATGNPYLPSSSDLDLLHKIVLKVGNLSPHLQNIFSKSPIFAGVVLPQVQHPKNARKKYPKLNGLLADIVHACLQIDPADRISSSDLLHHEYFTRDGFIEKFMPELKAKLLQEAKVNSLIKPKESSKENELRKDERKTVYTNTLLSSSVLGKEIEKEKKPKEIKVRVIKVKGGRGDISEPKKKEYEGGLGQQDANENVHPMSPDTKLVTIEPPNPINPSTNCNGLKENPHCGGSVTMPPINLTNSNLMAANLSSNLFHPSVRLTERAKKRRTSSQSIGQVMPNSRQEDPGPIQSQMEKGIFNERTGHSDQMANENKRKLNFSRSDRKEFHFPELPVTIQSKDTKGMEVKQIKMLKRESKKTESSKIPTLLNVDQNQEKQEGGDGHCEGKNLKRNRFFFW

C[C@@H]1CN(c2cc(-c3nn(C)c4ccc(OC5(C)CC5)cc34)ncn2)C[C@H](C)O1 [MLi-2-NC]
inactive: residual activity [1, 18] 100% | residual activity [2, 18] 84% | residual activity [3, 18] 88% | residual activity [4, 18] 77% | residual activity [5, 18] 77% | residual activity [6, 18] 100% | residual activity [7, 18] 78% | residual activity [8, 18] 84% | residual activity [9, 18] 100% | residual activity [10, 18] 90% | residual activity [11, 18] 88% | residual activity [12, 18] 75% | residual activity [13, 18] 94% | residual activity [14, 18] 95% | residual activity [15, 18] 71% | residual activity [16, 18] 76% | inhibition [17] -3.11%

C[C@@H]1CN(c2cc(-c3n[nH]c4ccc(OC5(C)CC5)cc34)ncn2)C[C@H](C)O1 [MLi-2]
inactive: residual activity [1, 19] 100% | residual activity [2, 19] 80% | residual activity [3, 19] 75% | residual activity [4, 19] 92% | residual activity [5, 19] 87% | residual activity [6, 19] 100% | residual activity [7, 19] 90% | residual activity [8, 19] 84% | residual activity [9, 19] 92% | residual activity [10, 19] 100% | residual activity [11, 19] 100% | residual activity [12, 19] 68% | residual activity [13, 19] 100% | residual activity [14, 19] 76% | residual activity [15, 19] 78% | residual activity [16, 19] 73% | inhibition [17] 4.35%
